Experimental data reported in patent publication US7563782B2, “T-type calcium channel blocker” (Nissan Chemical Industries, Ltd., priority 2003, dated 2009).

Key:
L-type Ca channel = test: Pharmacological Test Example 1: whole cell patch clamp, Ca current inhibition in BHK cells expressing L-type Ca channel; type: cell-based; details: for Inhibition (%): L-type Ca channel, BHK cells, 5 minutes after application, mean ± SE
Experimental: (§1) Pharmacological Test Example 1 (effect on L-type and T-type Ca (calcium) channel expressed in mammalian cells (BHK cells))
(§2) In this test, an electrophysiological evaluation was carried out by use of BHK (baby hamster kidney) cells in which L-type Ca channel or T-type Ca channel (α1G) was expressed according to the method of Wakamori M et al. (Wakamori M et al.: J Biol Chem 273, 34857-34867,1998) based on the whole cell patch clamp method. Each Ca-ion current was measured through a patch clamp amplifier as an inward current when depolarization pulse (10 mV in L-type Ca channel, −20 mV in T-type Ca channel) was applied to cells maintained at a membrane potential of −80 mV. Optically active R-form or S-form of efonidipine was dissolved in extracellular solution and applied with perfusion. At 5 minutes after the application, any variation in Ca-ion current was measured. The results are shown in Ca current inhibition (%) of the compound of the present invention to Ca current (100%) in vehicle control.

T-type Ca channel (α1G) = target: T1, T-type Ca channel (α1G) (Homo sapiens, UniProt O43497); test: Pharmacological Test Example 1: whole cell patch clamp, Ca current inhibition in BHK cells expressing T-type Ca channel; type: cell-based
T1 construct: expressed in transfected cells; host or cells: BHK (baby hamster kidney) cells
Experimental: as §1, §2

[1] = T-type Ca channel, concentration 0.1 μM, BHK cells, 5 minutes after application, mean ± SE, 0.1 µM

T1 sequence (O43497 whole entry): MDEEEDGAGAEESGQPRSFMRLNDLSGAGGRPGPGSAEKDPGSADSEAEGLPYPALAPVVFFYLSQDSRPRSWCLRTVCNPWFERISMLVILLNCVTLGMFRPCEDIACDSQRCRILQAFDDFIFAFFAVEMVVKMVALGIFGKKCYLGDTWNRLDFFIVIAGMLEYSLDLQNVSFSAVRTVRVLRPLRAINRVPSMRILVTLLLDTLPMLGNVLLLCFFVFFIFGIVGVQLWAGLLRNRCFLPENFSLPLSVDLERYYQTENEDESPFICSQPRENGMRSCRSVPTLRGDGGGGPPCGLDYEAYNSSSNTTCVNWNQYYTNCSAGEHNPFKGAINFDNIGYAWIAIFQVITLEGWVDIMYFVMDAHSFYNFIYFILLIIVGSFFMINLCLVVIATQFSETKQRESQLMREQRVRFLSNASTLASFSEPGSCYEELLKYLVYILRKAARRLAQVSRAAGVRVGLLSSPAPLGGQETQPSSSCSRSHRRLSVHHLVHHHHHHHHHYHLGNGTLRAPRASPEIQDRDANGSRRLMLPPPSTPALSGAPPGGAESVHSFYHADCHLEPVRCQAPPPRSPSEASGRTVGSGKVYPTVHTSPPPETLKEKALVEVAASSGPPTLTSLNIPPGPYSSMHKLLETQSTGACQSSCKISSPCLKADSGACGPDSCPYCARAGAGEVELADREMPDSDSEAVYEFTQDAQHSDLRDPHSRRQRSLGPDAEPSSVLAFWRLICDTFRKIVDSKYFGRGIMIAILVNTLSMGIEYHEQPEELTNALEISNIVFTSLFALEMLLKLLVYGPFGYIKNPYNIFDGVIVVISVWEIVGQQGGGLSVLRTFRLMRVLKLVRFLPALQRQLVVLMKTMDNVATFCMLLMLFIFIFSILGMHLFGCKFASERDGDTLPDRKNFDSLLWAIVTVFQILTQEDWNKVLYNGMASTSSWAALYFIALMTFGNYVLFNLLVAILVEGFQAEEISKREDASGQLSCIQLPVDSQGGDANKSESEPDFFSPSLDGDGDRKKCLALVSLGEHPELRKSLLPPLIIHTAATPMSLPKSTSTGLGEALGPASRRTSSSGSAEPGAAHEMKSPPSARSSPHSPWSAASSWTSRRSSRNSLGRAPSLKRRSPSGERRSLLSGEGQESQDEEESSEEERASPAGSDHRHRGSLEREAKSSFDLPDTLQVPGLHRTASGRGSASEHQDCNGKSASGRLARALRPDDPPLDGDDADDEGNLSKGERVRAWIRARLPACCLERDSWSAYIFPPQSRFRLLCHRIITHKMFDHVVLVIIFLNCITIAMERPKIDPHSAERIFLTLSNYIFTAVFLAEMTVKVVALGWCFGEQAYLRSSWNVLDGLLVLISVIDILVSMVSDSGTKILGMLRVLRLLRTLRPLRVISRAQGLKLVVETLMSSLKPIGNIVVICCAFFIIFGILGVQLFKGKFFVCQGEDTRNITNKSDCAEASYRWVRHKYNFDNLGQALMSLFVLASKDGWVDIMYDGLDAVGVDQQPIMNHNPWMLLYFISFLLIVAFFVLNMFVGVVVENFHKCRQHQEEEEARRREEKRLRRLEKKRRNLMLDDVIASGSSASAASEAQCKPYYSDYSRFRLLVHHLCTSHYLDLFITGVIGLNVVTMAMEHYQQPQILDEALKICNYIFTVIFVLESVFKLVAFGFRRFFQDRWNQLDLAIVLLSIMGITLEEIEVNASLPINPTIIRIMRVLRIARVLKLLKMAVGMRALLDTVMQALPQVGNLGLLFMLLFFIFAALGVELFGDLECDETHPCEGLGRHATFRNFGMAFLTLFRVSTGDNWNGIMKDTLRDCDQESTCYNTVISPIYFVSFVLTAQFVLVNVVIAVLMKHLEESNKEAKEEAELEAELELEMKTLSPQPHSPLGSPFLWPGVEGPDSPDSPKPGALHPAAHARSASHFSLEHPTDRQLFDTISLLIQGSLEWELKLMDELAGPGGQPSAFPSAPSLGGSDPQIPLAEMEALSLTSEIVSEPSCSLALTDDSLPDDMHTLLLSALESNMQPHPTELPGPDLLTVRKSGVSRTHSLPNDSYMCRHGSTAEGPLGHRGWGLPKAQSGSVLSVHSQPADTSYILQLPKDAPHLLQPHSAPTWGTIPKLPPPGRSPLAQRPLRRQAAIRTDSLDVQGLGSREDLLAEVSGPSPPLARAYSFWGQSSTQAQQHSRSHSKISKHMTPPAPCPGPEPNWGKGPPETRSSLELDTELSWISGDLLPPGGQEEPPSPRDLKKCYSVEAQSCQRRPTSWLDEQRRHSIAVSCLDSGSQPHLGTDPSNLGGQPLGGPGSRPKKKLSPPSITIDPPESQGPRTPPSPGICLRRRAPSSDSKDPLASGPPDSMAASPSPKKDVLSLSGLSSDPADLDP

## CC1=C(C(=O)OCCN(Cc2ccccc2)c2ccccc2)C(c2cccc([N+](=O)[O-])c2)C(P2(=O)OCC(C)(C)CO2)=C(C)N1 (centres unmarked) [Efonidipine R-form, 1,4-dihydro-2,6-dimethyl-5-(5,5-dimethyl-2-oxo-1,3,2-dioxaphosphorinan-2-yl)-4-(3-nitrophenyl)-3-pyridine carboxylic acid 2-[benzyl (phenyl)amino]ethylester]
L-type Ca channel; concentration 10 μM
  Inhibition (%): 2.2 ± 3.4%
L-type Ca channel; concentration of 10 μM
  inhibition for L-type Ca channel (in words): did not show any inhibition
T-type Ca channel (α1G); BHK, T-type Ca channel, concentration 1 μM, BHK cells, 5 minutes after application, mean ± SE
  inhibition at 1 µM: 41.7 ± 5.3%
T-type Ca channel (α1G); BHK, T-type Ca channel, concentration 10 μM, BHK cells, 5 minutes after application, mean ± SE
  inhibition at 10 µM: 72.7 ± 5.6%
T-type Ca channel (α1G); [1]
  Inhibition (%): 19.4 ± 4.88%
T-type Ca channel (α1G); T-type versus L-type Ca channel
  selectivity for T-type Ca channel: high selectivity
T-type Ca channel (α1G); concentration of 0.1 μM or more
  inhibition for T-type Ca channel (in words): concentration-dependent inhibition

## CC1=C(C(=O)OCCN(Cc2ccccc2)c2ccccc2)C(c2cccc([N+](=O)[O-])c2)C(P2(=O)OCC(C)(C)CO2)=C(C)N1 (centres unmarked) [Efonidipine S-form, 1,4-dihydro-2,6-dimethyl-5-(5,5-dimethyl-2-oxo-1,3,2-dioxaphosphorinan-2-yl)-4-(3-nitrophenyl)-3-pyridine carboxylic acid 2-[benzyl (phenyl)amino]ethylester, reference compound]
L-type Ca channel; concentration 1 μM
  Inhibition (%): 55.6±7.1%
T-type Ca channel (α1G); [1]
  Inhibition (%): 7.7%
T-type Ca channel (α1G); T-type Ca channel, concentration 1 μM, BHK cells, 5 minutes after application, mean ± SE, 1 µM
  Inhibition (%): 42.9 ± 8.4%
T-type Ca channel (α1G); T-type Ca channel, concentration 10 μM, BHK cells, 5 minutes after application, mean ± SE, 10 µM
  Inhibition (%): 75.6 ± 7.1%
